According to ChEMBL document CHEMBL3991601, “The target landscape of clinical kinase drugs” (Science, 2017):
Active and inactive are the calls of the source.

How the values were obtained:
[1] = molecular target: T1, Serine/threonine-protein kinase ULK3 (Homo sapiens, UniProt Q6PHR2)
T1 sequence (Q6PHR2 whole entry): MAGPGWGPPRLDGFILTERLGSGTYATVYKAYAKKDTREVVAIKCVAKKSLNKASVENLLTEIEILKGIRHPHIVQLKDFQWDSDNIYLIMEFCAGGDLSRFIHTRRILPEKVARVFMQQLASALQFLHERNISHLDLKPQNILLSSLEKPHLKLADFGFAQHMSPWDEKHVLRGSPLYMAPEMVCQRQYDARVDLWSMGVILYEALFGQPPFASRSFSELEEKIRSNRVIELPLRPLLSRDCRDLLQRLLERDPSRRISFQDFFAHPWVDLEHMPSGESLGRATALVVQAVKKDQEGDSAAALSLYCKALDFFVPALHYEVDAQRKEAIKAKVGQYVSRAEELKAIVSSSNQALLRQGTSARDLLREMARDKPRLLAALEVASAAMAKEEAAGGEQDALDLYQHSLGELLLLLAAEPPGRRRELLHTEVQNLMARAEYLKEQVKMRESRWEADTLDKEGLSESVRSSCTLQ

[2] = molecular target: T2, ATP-dependent 6-phosphofructokinase, platelet type (Homo sapiens, UniProt Q01813)
T2 sequence (Q01813 whole entry): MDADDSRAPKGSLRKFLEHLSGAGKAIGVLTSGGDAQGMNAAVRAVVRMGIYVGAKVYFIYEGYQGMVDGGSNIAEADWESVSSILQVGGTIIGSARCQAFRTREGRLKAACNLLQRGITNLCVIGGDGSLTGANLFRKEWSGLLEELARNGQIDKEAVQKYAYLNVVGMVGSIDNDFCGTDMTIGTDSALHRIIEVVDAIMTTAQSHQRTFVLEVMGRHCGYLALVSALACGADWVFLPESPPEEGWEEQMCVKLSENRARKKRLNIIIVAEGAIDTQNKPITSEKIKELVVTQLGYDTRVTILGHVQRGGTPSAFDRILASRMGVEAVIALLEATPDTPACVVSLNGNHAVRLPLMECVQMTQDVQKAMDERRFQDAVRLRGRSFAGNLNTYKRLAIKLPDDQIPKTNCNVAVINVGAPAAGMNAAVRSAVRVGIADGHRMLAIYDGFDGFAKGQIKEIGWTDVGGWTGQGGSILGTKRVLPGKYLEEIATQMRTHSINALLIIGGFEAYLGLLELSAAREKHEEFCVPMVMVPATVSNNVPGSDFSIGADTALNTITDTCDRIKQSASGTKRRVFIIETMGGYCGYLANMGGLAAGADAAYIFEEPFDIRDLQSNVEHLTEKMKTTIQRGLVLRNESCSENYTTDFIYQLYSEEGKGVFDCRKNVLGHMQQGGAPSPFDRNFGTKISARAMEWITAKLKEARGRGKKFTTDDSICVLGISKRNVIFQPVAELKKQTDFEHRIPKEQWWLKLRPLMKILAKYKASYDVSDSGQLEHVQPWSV

[3] = molecular target: Mitogen-activated protein kinase 9 (Homo sapiens, UniProt P45984)
Glycine--tRNA ligase = molecular target: T3, Glycine--tRNA ligase (Homo sapiens, UniProt P41250)
T3 sequence (P41250 whole entry): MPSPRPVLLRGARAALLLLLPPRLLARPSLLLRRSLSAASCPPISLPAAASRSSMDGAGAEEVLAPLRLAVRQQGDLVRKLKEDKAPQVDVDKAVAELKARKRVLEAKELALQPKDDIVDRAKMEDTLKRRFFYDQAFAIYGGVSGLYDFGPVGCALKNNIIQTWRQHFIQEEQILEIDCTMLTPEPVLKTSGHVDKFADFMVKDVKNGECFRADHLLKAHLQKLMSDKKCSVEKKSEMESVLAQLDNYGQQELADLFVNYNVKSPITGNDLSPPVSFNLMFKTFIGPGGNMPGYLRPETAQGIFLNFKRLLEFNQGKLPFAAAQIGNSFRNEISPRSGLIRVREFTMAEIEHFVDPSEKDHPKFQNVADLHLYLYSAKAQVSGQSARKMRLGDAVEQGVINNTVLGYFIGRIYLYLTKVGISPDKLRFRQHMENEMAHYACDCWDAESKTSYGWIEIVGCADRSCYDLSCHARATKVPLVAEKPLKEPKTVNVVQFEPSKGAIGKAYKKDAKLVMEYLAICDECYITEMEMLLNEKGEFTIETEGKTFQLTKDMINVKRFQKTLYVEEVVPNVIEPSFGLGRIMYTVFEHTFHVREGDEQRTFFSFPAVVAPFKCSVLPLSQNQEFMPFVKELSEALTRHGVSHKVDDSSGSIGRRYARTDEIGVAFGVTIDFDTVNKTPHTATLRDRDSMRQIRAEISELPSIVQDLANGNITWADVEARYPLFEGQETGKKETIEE

[4] = molecular target: T4, cGMP-dependent protein kinase 1 (Homo sapiens, UniProt Q13976)
T4 sequence (Q13976 whole entry): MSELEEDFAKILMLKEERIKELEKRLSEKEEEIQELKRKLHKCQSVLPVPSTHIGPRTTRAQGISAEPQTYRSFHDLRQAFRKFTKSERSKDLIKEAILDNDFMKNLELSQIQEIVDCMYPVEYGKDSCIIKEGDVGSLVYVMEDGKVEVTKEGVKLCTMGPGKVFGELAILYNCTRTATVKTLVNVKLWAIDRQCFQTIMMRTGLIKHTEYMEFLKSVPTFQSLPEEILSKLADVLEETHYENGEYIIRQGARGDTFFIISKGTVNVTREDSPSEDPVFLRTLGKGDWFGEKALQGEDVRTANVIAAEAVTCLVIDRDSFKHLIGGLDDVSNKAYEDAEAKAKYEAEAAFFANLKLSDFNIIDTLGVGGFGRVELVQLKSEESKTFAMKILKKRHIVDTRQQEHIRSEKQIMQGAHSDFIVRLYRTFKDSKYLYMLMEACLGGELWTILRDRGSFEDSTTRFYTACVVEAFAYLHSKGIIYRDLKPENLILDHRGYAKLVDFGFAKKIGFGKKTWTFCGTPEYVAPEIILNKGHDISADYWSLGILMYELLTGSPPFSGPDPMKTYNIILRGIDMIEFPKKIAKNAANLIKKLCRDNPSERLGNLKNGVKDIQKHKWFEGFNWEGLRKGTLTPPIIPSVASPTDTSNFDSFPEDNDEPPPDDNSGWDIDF

[5] = molecular target: Tyrosine-protein kinase HCK (Homo sapiens, UniProt P08631)
Note: in the data inactive means no Kd found up to 30 µM.

Tyrosine-protein kinase HCK, sequence (P08631 whole entry): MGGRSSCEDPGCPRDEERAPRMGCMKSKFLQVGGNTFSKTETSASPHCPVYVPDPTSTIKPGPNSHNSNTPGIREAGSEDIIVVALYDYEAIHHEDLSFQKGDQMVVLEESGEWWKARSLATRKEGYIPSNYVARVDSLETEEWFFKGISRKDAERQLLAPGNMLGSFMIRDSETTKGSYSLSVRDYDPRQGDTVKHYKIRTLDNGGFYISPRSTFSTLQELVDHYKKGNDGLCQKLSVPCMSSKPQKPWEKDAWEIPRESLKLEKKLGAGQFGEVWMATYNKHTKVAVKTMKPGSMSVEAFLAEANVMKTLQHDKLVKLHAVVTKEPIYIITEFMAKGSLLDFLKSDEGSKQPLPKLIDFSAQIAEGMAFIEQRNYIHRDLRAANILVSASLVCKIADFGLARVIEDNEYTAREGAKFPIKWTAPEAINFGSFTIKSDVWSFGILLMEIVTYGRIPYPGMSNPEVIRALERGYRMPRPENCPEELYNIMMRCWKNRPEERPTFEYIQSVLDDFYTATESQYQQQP
Mitogen-activated protein kinase 9, sequence (P45984 whole entry): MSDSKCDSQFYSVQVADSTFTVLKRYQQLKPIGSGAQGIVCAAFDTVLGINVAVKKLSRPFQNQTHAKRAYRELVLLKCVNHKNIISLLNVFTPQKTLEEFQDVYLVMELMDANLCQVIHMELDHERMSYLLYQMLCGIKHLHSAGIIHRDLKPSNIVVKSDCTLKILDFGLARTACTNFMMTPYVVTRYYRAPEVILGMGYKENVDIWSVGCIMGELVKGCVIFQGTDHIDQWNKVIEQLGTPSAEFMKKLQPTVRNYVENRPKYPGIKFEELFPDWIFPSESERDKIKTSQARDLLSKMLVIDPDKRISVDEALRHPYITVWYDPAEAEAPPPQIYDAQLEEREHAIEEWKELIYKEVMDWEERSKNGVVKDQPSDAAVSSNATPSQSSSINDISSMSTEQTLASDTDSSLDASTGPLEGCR

Kd [1]	Kd [2]	Kd [3]	Kd (Glycine--tRNA ligase)	Kd [4]	Kd [5]	SMILES
> 30 µM (inactive)	> 30 µM (inactive)	> 30 µM (inactive)	> 30 µM (inactive)	> 30 µM (inactive)	> 30 µM (inactive)	Cn1ncc(Cl)c1-c1cc(C(=O)N[C@H](CN)Cc2ccc(F)c(F)c2)oc1Cl [UPROSERTIB]
> 30 µM (inactive)	> 30 µM (inactive)	> 30 µM (inactive)	> 30 µM (inactive)	> 30 µM (inactive)	> 30 µM (inactive)	C[C@@H](N)c1ccc(C(=O)Nc2ccnc3[nH]ccc23)cc1 [Y-39983]

More lines, now with the values behind:

SMILES	Kd [1]	Kd [2]	Kd [3]	Kd (Glycine--tRNA ligase)	Kd [4]	Kd [5]
Cc1cc(Nc2ncnc3ccc(NC4=NC(C)(C)CO4)cc23)ccc1Oc1ccn2ncnc2c1 [TUCATINIB]	> 30 µM (inactive)	> 30 µM (inactive)	> 30 µM (inactive)	> 30 µM (inactive)	> 30 µM (inactive)	> 30 µM (inactive)
CC(C)c1cc(CNc2nc(Nc3cc(C4CC4)[nH]n3)cc(N3CCN(C)CC3)n2)on1 [XL-228]	0.492 µM (active)	> 30 µM (inactive)	> 30 µM (inactive)	> 30 µM (inactive)	> 30 µM (inactive)	6.39 µM (active)
CN1C/C=C/CCOc2cccc(c2)-c2ccnc(n2)Nc2cccc(c2)C1 [ZOTIRACICLIB]	> 30 µM (inactive)	> 30 µM (inactive)	2.31 µM (active)	> 30 µM (inactive)	> 30 µM (inactive)	> 30 µM (inactive)
